{"source": "patent US6358885B1", "about": "“Substituted phenylheterocyclic herbicides” (Mississippi State University, priority 1992, dated 2002)", "assay_in_all_cases": "Test F preemergence/postemergence greenhouse plant response rating 0 to 100", "key": {"wild oat": {"tested_on": "wild oat", "format": "in vivo, Avena fatua", "conditions": "POSTEMERGENCE, 0 to 100 scale; for Wild oat (1) plant response rating: stage (1) two to three leaves; for Wild oat (2) plant response rating: stage (2) approximately four leaves or initial tillering", "excerpt": "(§1) Compounds evaluated in this test were formulated in a non-phytoxic solvent and applied to the soil surface before plant seedlings emerged (preemergence application) and to plants that were in the one-to-four leaf stage (postemergence application). A sandy loam soil was used for the preemergence test while a mixture of sandy loam soil and greenhouse potting mix in a 60:40 ratio was used for the postemergence test. Test compounds were applied within approximately one day after planting seeds for the preemergence test. Plantings of these crops and weed species were adjusted to produce plants of appropriate size for the postemergence test. All plant species were grown using normal greenhouse practices. Crop and weed species include winter barley (Hordeum vulgare cv. ‘Igri’), blackgrass (Alopecurus myosuroides), chickweed (Stellaria media), downy brome (Bromus tectorum), field violet (Viola arvensis), galium (Galium aparine), green foxtail (Setaria viridis), kochia (Kochia scoparia), lambsquarters (Chenopodium album), speedwell (Veronica persica), rape (Brassica napus), ryegrass (Lolium multiflorum), sugar beet (Beta vulgaris cv. ‘USl’), sunflower (Helianthus annuus cv. ‘Russian Giant’), spring wheat (Triticum aestivum cv. ‘ERA’), winter wheat (Triticum aestivum cv. ‘Talent’), wild buckwheat (Polygonum convolvulus), wild mustard (Sinapis arvensis), wild oat (Avena fatua), and wild radish (Raphanus raphanistrum). Blackgrass, galium and wild oat were treated at two growth stages. […] Treated plants and untreated controls were maintained in a greenhouse for approximately 21 to 28 days, after which all treated plants were compared to untreated controls and visually evaluated. […] A dash response (-) means no test result."}, "downy brome": {"tested_on": "downy brome", "format": "in vivo, Bromus tectorum", "conditions": "POSTEMERGENCE, 0 to 100 scale", "excerpt": "as §1"}, "ryegrass": {"tested_on": "ryegrass", "format": "in vivo, Lolium multiflorum", "conditions": "POSTEMERGENCE, 0 to 100 scale", "excerpt": "as §1"}, "galium": {"tested_on": "galium", "format": "in vivo, Galium aparine", "conditions": "POSTEMERGENCE, 0 to 100 scale; for Galium (1) plant response rating: stage (1) two to three leaves; for Galium (2) plant response rating: stage (2) approximately four leaves or initial tillering", "excerpt": "as §1"}, "wild buckwheat": {"tested_on": "wild buckwheat", "format": "in vivo, Polygonum convolvulus", "conditions": "POSTEMERGENCE, 0 to 100 scale", "excerpt": "as §1"}, "spring wheat": {"tested_on": "spring wheat", "format": "in vivo, Triticum aestivum cv. ‘ERA’", "conditions": "POSTEMERGENCE, 0 to 100 scale", "excerpt": "as §1"}, "green foxtail": {"tested_on": "green foxtail", "format": "in vivo, Setaria viridis", "conditions": "POSTEMERGENCE, 0 to 100 scale", "excerpt": "as §1"}, "speedwell": {"tested_on": "speedwell", "format": "in vivo, Veronica persica", "conditions": "POSTEMERGENCE, 0 to 100 scale", "excerpt": "as §1"}, "winter barley": {"tested_on": "winter barley", "format": "in vivo, Hordeum vulgare cv. ‘Igri’", "conditions": "POSTEMERGENCE, 0 to 100 scale", "excerpt": "as §1"}, "winter wheat": {"tested_on": "winter wheat", "format": "in vivo, Triticum aestivum cv. ‘Talent’", "conditions": "POSTEMERGENCE, 0 to 100 scale", "excerpt": "as §1"}, "chickweed": {"tested_on": "chickweed", "format": "in vivo, Stellaria media", "conditions": "POSTEMERGENCE, 0 to 100 scale", "excerpt": "as §1"}, "rape": {"tested_on": "rape", "format": "in vivo, Brassica napus", "conditions": "POSTEMERGENCE, 0 to 100 scale", "excerpt": "as §1"}, "field violet": {"tested_on": "field violet", "format": "in vivo, Viola arvensis", "conditions": "POSTEMERGENCE, 0 to 100 scale", "excerpt": "as §1"}, "lambsquarters": {"tested_on": "lambsquarters", "format": "in vivo, Chenopodium album", "conditions": "POSTEMERGENCE, 0 to 100 scale", "excerpt": "as §1"}}, "data": [{"smiles": "CCOC(=O)COc1cc(-c2nn3c(c2Cl)CCCC3)c(F)cc1Cl", "note": "[Compound 42]", "values": [{"measurement": "Wild oat (1) plant response rating", "setting": "wild oat; Rate 2 g/ha", "value": 0}, {"measurement": "Wild oat (2) plant response rating", "setting": "wild oat; Rate 2 g/ha", "value": 0}, {"measurement": "Wild oat (1) plant response rating", "setting": "wild oat; Rate 4 g/ha", "value": 0}, {"measurement": "Wild oat (2) plant response rating", "setting": "wild oat; Rate 4 g/ha", "value": 0}, {"measurement": "Wild oat (1) plant response rating", "setting": "wild oat; Rate 8 g/ha", "value": 0}, {"measurement": "Wild oat (2) plant response rating", "setting": "wild oat; Rate 8 g/ha", "value": 0}, {"measurement": "Wild oat (1) plant response rating", "setting": "wild oat; Rate 16 g/ha", "value": 0}, {"measurement": "Wild oat (2) plant response rating", "setting": "wild oat; Rate 16 g/ha", "value": 0}, {"measurement": "Wild oat (1) plant response rating", "setting": "wild oat; Rate 32 g/ha", "value": 10}, {"measurement": "Wild oat (2) plant response rating", "setting": "wild oat; Rate 32 g/ha", "value": 10}, {"measurement": "Downy brome plant response rating", "setting": "downy brome; Rate 2 g/ha", "value": 0}, {"measurement": "Downy brome plant response rating", "setting": "downy brome; Rate 4 g/ha", "value": 0}, {"measurement": "Downy brome plant response rating", "setting": "downy brome; Rate 8 g/ha", "value": 0}, {"measurement": "Downy brome plant response rating", "setting": "downy brome; Rate 16 g/ha", "value": 0}, {"measurement": "Downy brome plant response rating", "setting": "downy brome; Rate 32 g/ha", "value": 0}, {"measurement": "Ryegrass plant response rating", "setting": "ryegrass; Rate 2 g/ha", "value": 0}, {"measurement": "Ryegrass plant response rating", "setting": "ryegrass; Rate 4 g/ha", "value": 0}, {"measurement": "Ryegrass plant response rating", "setting": "ryegrass; Rate 8 g/ha", "value": 0}, {"measurement": "Ryegrass plant response rating", "setting": "ryegrass; Rate 16 g/ha", "value": 0}, {"measurement": "Ryegrass plant response rating", "setting": "ryegrass; Rate 32 g/ha", "value": 30}, {"measurement": "Galium (1) plant response rating", "setting": "galium; Rate 2 g/ha", "value": 0}, {"measurement": "Galium (2) plant response rating", "setting": "galium; Rate 2 g/ha", "value": 0}, {"measurement": "Galium (1) plant response rating", "setting": "galium; Rate 4 g/ha", "value": 0}, {"measurement": "Galium (2) plant response rating", "setting": "galium; Rate 4 g/ha", "value": 0}, {"measurement": "Galium (1) plant response rating", "setting": "galium; Rate 8 g/ha", "value": 40}, {"measurement": "Galium (2) plant response rating", "setting": "galium; Rate 8 g/ha", "value": 30}, {"measurement": "Galium (1) plant response rating", "setting": "galium; Rate 16 g/ha", "value": 40}, {"measurement": "Galium (2) plant response rating", "setting": "galium; Rate 16 g/ha", "value": 60}, {"measurement": "Galium (1) plant response rating", "setting": "galium; Rate 32 g/ha", "value": 60}, {"measurement": "Galium (2) plant response rating", "setting": "galium; Rate 32 g/ha", "value": 60}, {"measurement": "Wild buckwheat plant response rating", "setting": "wild buckwheat; Rate 2 g/ha", "value": 60}, {"measurement": "Wild buckwheat plant response rating", "setting": "wild buckwheat; Rate 4 g/ha", "value": 60}, {"measurement": "Wild buckwheat plant response rating", "setting": "wild buckwheat; Rate 8 g/ha", "value": 100}, {"measurement": "Wild buckwheat plant response rating", "setting": "wild buckwheat; Rate 16 g/ha", "value": 100}, {"measurement": "Wheat (Spring) plant response rating", "setting": "spring wheat; Rate 2 g/ha", "value": 0}, {"measurement": "Wheat (Spring) plant response rating", "setting": "spring wheat; Rate 4 g/ha", "value": 0}, {"measurement": "Wheat (Spring) plant response rating", "setting": "spring wheat; Rate 8 g/ha", "value": 0}, {"measurement": "Wheat (Spring) plant response rating", "setting": "spring wheat; Rate 16 g/ha", "value": 10}, {"measurement": "Wheat (Spring) plant response rating", "setting": "spring wheat; Rate 32 g/ha", "value": 10}, {"measurement": "Green foxtail plant response rating", "setting": "green foxtail; Rate 2 g/ha", "value": 0}, {"measurement": "Green foxtail plant response rating", "setting": "green foxtail; Rate 4 g/ha", "value": 0}, {"measurement": "Green foxtail plant response rating", "setting": "green foxtail; Rate 8 g/ha", "value": 0}, {"measurement": "Green foxtail plant response rating", "setting": "green foxtail; Rate 16 g/ha", "value": 10}, {"measurement": "Green foxtail plant response rating", "setting": "green foxtail; Rate 32 g/ha", "value": 60}, {"measurement": "Persn Speedwell plant response rating", "setting": "speedwell; Rate 2 g/ha", "value": 100}, {"measurement": "Persn Speedwell plant response rating", "setting": "speedwell; Rate 4 g/ha", "value": 100}, {"measurement": "Persn Speedwell plant response rating", "setting": "speedwell; Rate 8 g/ha", "value": 100}, {"measurement": "Persn Speedwell plant response rating", "setting": "speedwell; Rate 16 g/ha", "value": 100}, {"measurement": "Persn Speedwell plant response rating", "setting": "speedwell; Rate 32 g/ha", "value": 100}, {"measurement": "Winter Barley plant response rating", "setting": "winter barley; Rate 2 g/ha", "value": 10}, {"measurement": "Winter Barley plant response rating", "setting": "winter barley; Rate 4 g/ha", "value": 10}, {"measurement": "Winter Barley plant response rating", "setting": "winter barley; Rate 8 g/ha", "value": 10}, {"measurement": "Winter Barley plant response rating", "setting": "winter barley; Rate 16 g/ha", "value": 10}, {"measurement": "Winter Barley plant response rating", "setting": "winter barley; Rate 32 g/ha", "value": 10}, {"measurement": "Wheat (Winter) plant response rating", "setting": "winter wheat; Rate 2 g/ha", "value": 0}, {"measurement": "Wheat (Winter) plant response rating", "setting": "winter wheat; Rate 4 g/ha", "value": 0}, {"measurement": "Wheat (Winter) plant response rating", "setting": "winter wheat; Rate 8 g/ha", "value": 10}, {"measurement": "Wheat (Winter) plant response rating", "setting": "winter wheat; Rate 16 g/ha", "value": 10}, {"measurement": "Wheat (Winter) plant response rating", "setting": "winter wheat; Rate 32 g/ha", "value": 10}, {"measurement": "Chickweed plant response rating", "setting": "chickweed; Rate 2 g/ha", "value": 0}, {"measurement": "Chickweed plant response rating", "setting": "chickweed; Rate 4 g/ha", "value": 0}, {"measurement": "Chickweed plant response rating", "setting": "chickweed; Rate 8 g/ha", "value": 0}, {"measurement": "Chickweed plant response rating", "setting": "chickweed; Rate 16 g/ha", "value": 0}, {"measurement": "Chickweed plant response rating", "setting": "chickweed; Rate 32 g/ha", "value": 0}, {"measurement": "Rape plant response rating", "setting": "rape; Rate 2 g/ha", "value": 0}, {"measurement": "Rape plant response rating", "setting": "rape; Rate 4 g/ha", "value": 20}, {"measurement": "Rape plant response rating", "setting": "rape; Rate 8 g/ha", "value": 40}, {"measurement": "Rape plant response rating", "setting": "rape; Rate 16 g/ha", "value": 70}, {"measurement": "Rape plant response rating", "setting": "rape; Rate 32 g/ha", "value": 100}, {"measurement": "Field violet plant response rating", "setting": "field violet; Rate 2 g/ha", "value": 0}, {"measurement": "Field violet plant response rating", "setting": "field violet; Rate 4 g/ha", "value": 0}, {"measurement": "Field violet plant response rating", "setting": "field violet; Rate 8 g/ha", "value": 10}, {"measurement": "Field violet plant response rating", "setting": "field violet; Rate 16 g/ha", "value": 70}, {"measurement": "Field violet plant response rating", "setting": "field violet; Rate 32 g/ha", "value": 80}, {"measurement": "Lambsquarters plant response rating", "setting": "lambsquarters; Rate 2 g/ha", "value": 55}, {"measurement": "Lambsquarters plant response rating", "setting": "lambsquarters; Rate 4 g/ha", "value": 60}, {"measurement": "Lambsquarters plant response rating", "setting": "lambsquarters; Rate 8 g/ha", "value": 60}, {"measurement": "Lambsquarters plant response rating", "setting": "lambsquarters; Rate 16 g/ha", "value": 100}, {"measurement": "Lambsquarters plant response rating", "setting": "lambsquarters; Rate 32 g/ha", "value": 100}]}]}
